# Measured values as given in patent US6693095B2, “Antibacterial substituted 7-acylamino-3-(methylhydrazono) methyl-cephalosporins and intermediates” (priority 1997, dated 2004).
# Test system: multi-drug resistant Pneumococcus
# Assay: Agar Dilution Test (NCCLS), MHK
# Format: cell-based, Pneumococcus pneumoniae
# Settings: against multi-drug resistant Pneumococcus
# Description: In particular, the active compounds of the invention show antimicrobial, e.g. antibacterial, activity against aerobic and anaerobic growing bacteria, e.g. gram negative and gram positive bacteria such as Enterobacter, e.g. Enterobacter cloacae; Enterococcus, e.g. Enterococcus faecalis, Enterococcus faecium; Moraxella, e.g. Moraxella catarrhalis; Haemophilus, e.g. Haemophilus influenza; Klebsiella, e.g. Klebsiella edwardsii, Klebsiella pneumoniae; Streptococcus, e.g. Streptococcus pyogenes; Staphylococcus, e.g. Staphylococcus aureus MSSA (methicillin sensitive strains); Staphylococcus aureus MRSA (methicillin resistant strains); Escherichia, e.g. Escherichia coli; Proteus, e.g. Proteus mirabilis, Salmonella, e.g. Salmonella typhimurium, Serratia, e.g. Serratia marcescens, Pseudomonas, e.g. Pseudomonas aeruginosa; Pneumococci, e.g. Pneumococcus pneumoniae (penicillin sensitive and mult-drug resistant strains); in vitro in the Agar DilutionTest for bacteria according to National Commitee for Clinical Laboratory Standards (NCCLS) 1993,
# Document-M7-A3 Vol.13, No. 25: “Methods for dilution Antimicrobial Susceptibility Tests for Bacteria that Grow Aerobically-Third Edition, Approved Standard”; and
# Document M11-A3 for anaerobic bacteria […]
substance,measurement,value
"7-(((5-amino-1,2,4-thiadiazol-3-yl)-(Z)-(fluoromethoxyimino)acetyl)amino)-3-(imino-1-piperazinyhmethyl)medtylhydrazono)methyl-3-cephem4-carboxylic acid [Example 1]",MHK,0.4 µg/mL
